Test results published in publication PMC5667785 (International Journal of Nanomedicine, 2017).

Assays:
[1] = Critical micelle concentration by surface-tension measurements; format: physicochemical
[2] = test system: liver microsomal enzymes; settings: within 30 minutes ref 14; cited from earlier work
[3] = Cur stability in Krebs–Ringer intestinal circulation-perfusion solution; format: physicochemical; settings: 2 hours at 37°C

Row | Compound | Critical micelle concentration [1] | Biotransformation of Cur to sulfate or glucuronide conjugates [2] | Cur stability in the KR solution [3]
1 | TCA-PEG100-monostearate [S100-TCA] | 15.86 ± 0.53 µg/mL |  | 
2 | COc1cc(/C=C/C(=O)CC(=O)/C=C/c2ccc(O)c(OC)c2)ccc1O [Cur, Curcumin] |  | 90% | neither degraded
